Data set [1] has as its system CHO cells. Description: Recombinant protein expression from CHO cells in chemically defined medium (summary statements). It is filed as cell-based, Chinese hamster. Particulars: two different CHO cell lines expressing two different recombinant antibodies.
In data set [2] the test system is CHO cell line A. Description: Fed-batch shake flask production culture in serum-free defined medium: titer and viability. In kind it is cell-based, Chinese hamster. Conditions: culture period 13 to 14 days. The protocol: (§1) Materials and Methods: Dipeptides were purchased from Bachem (Torrance, Calif.). Each dipeptide was dissolved in water for preparation of concentrated stock solution (100 mg/mL), followed by sterile filtration using Spin-X® filter unit (Corning Inc., Corning, N.Y.).
(§2) On Day 0, prior to inoculation of production cell lines, appropriate volumes of concentrated dipeptide stock solution were added to serum-free defined production medium to bring the final dipeptide concentration at 0.5-2.0 g/L. For controls, the same volume of water was added. Cells were inoculated at 5×10^5 cells/mL with the final culture volume of 50 mL in 250 mL flasks. The shaker flasks cultures were grown in the incubator at 36° C., with 5% CO2 and agitation rate of 160 rpm.
(§3) Cultures were fed with bolus defined feed media on Days 3, 6, and 8 with the feed volume of 5-6% on Day 3, 9% on Day 6 and 9% on Day 8. Cultures were stopped and harvested on Day 11. However, if the culture viability on Day 11 was >70%, culture duration was extended beyond day 11 by introducing 4th feed on Day 11 and 5th feed on day 13 if necessary. Feed volume on Day 11 ranged from 5% to 8%, depending on the culture performance. Day 13 feed ranged from 2.5% to 3.0%. Glucose was fed as needed with typical target concentration of 7-8 g/L.
(§4) On selective days during the production run, small volumes of cultures were taken out to assess viable cell density and % viability using the CEDEX cell counter (Roche Innovatis AG). Titer was also determined on collected samples, using the high-throughput HPLC analytical method.
Materials and Methods: CHO cell line A was cultured as in Example 2. The effect of dipeptide Ala-His (added at 1 g/L) was compared to no added dipeptide (control) and dipeptide His-Gly. The culture period was 13 to 14 days, at which point titer and viability were assessed.

For data set [3], the system named is CHO cell line C. Description: Fed-batch shake flask production culture in serum-free defined medium: titer, viability, growth, metabolic profiles. In kind it is cell-based, Chinese hamster. Conditions: for day 11 titer: cell line C, culture period 11 days (Example 4, FIG. 5). The protocol: as §1, §2, §3, §4
Materials and Methods: CHO cell line C was cultured as in Example 2. The dipeptides tested were Tyr-Lys, Thr-Phe, His-Gly, Tyr-Ala, Gly-His, Tyr-His, Tyr-Val, and a combination of Tyr-His and Thr-Phe. The culture period was 11 days, at which point titer and viability were assessed.
Materials and Methods: CHO cell line C was used for this experiment, and cultured as in Example 2. Titer, viability, viable cell density, specific productivity, and cell diameter were determined each day from day 6 to 13 or 14 of cell culture. Tyr-His dipeptide was tested at 0.5 g/L and 1 g/L, and compared to the addition of no dipeptide.

Data set [4] concerns CHO cell line D. Description: 6-day batch culture in serum-free defined production medium: titer and viability. Conditions: 1 to 4 g/L, 6 days batch culture; for titer: over the negative control. In kind it is cell-based, Chinese hamster. How it is done: Materials and Methods: CHO cell line D, which produces a fully human recombinant antibody, was used for this experiment. Cells were inoculated at 2×10^6 cells/mL with a final culture volume of 2.0 mL into serum-free defined production medium. Experimental samples contained the dipeptides His-Glu, Glu-His, His-Ser, and His-Gln from 1 to 4 g/L. Control wells were set up containing either no added dipeptide as a negative control, or containing peptone at 10 g/L as a positive control. The cultures were incubated as a batch culture for 6 days, at which point the cells were harvested and titer and viability determined.

Data set [5] is described as follows: Solubility of tyrosine-containing dipeptides.
For data set [6] the following is noted: reference #1; cited from earlier work.
[7] abbreviates: supplement by itself in serum-free, peptone-free production medium.

Converted amounts (≈) assume the structure as drawn. Where a SMILES comes first, the peptide text is derived from it.

Regarding His-Gly, in data set [1], the “productivity and culture performance” value is “improve productivity and culture performance”. In data set [2] (Ala-His added at 1 g/L), the viability result is “better at maintaining viability”. Moreover, in data set [2], the “titer improvement as compared to control” value was “more than 10%”. Moreover, the “day 11 titer” value in data set [3] is recorded as “moderately improved titer”.
Consider Ala-His, for which, in data set [2] (Ala-His added at 1 g/L), the viability result is on record as “maintain increased viability”. The titer result in data set [2] (Ala-His added at 1 g/L, vs control) is listed as “also improved titer, but not as much as His-Gly”.
For Tyr-Val, the “day 11 titer” value in data set [3] is on record as “significantly improved titer”.
As for Thr-Phe, the “day 11 titer” value in data set [3] was “little to no effect”. Further, in data set [3] (setting [7]), the recombinant protein production result is “little to no effect” and the viability result is on record as “little to no effect”.
His-Gln: in data set [4], the viability result is listed as “significantly improved” and the titer entry is on record as “not significantly increased”.
Consider `CSCC[C@H](N)C(=O)N[C@@H](Cc1ccc(O)cc1)C(=O)O` [Met-Tyr] (H-Met-Tyr-OH; N-terminus and C-terminus assumed), for which the Solubility tested entry in data set [5] is “Not soluble”.
In the case of `N[C@@H](Cc1ccc(O)cc1)C(=O)N[C@@H](Cc1c[nH]cn1)C(=O)O` [Tyr-His] (H-Tyr-His-OH; N-terminus and C-terminus assumed), the Solubility tested entry in data set [5] was “readily soluble”. Further, in data set [6], the “Solubility (g/L)- ref. #1” value is reported as 100 g/L (≈ 314 mM).
For the molecule `NCCCC[C@H](NC(=O)[C@@H](N)Cc1ccc(O)cc1)C(=O)O` [Tyr-Lys] (H-Tyr-Lys-OH; N-terminus and C-terminus assumed), the Solubility tested result in data set [5] is reported as “readily soluble”. The “Solubility (g/L)- ref. #1” value in data set [6] was 81 g/L (≈ 262 mM).
Turning to Glu-His, in data set [4], the viability entry is “significantly improved” and the titer result is listed as “not significantly increased”.
On to Tyr-Ala, for which the “day 11 titer” value in data set [3] was “significantly improved titer”.
With Gly-His, the “productivity and culture performance” value in data set [1] was “negative effect”. Moreover, in data set [3], the “day 11 titer” value is reported as “adversely affected titer”.
His-Ser: in data set [4], the viability result is listed as “significantly improved” and the titer result is given as “not significantly increased”.
With His-Glu, in data set [4], the viability entry was “significantly improved” and the titer entry is “not significantly increased”.

The values are drawn from patent US9012178B2, “Dipeptides to enhance yield and viability from cell cultures” (Amgen Inc., priority 2010, dated 2015).
